Reference: PubChem BioAssay AID2060887 (Molecular Pharmacology Branch, DTP, NCI, 2025)

Test system: 782815-120-R-J1-PDC complex spheroid viability
Test: Anticancer human tumor 782815-120-R-J1-PDC patient-derived colon adenocarcinoma cell line growth inhibition [RAS]
Settings: for IC50: curve of first compound; for viability, T/C: stronger effect = lower value
Summary of the method: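 Agents were tested in combination matrices in half-log decrements from a top concentration at or near clinical Cmax (10 microM if undetermined). Targets were multi-cell spheroids of tumour lines plus HUVEC and MSC stromal cells.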
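Note: spheroids exposed to compounds for 7 days before reading.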
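Throughout, for viability, T/C: 100% = DMSO vehicle control viability.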

How did the IC50 (second compound 0.0316 µM) turn out when `CC1(C)CCC(Nc2ncc(C(F)(F)F)c(-c3c[nH]c4c(P(C)(C)=O)c(C#N)ccc34)n2)CN1` (configuration not stated) + C#Cc1c(F)ccc2cc(O)cc(-c3ncc4c(N5CC6CCC(C5)N6)nc(OCC56CCCN5CC(F)C6)nc4c3F)c12 was run?
The IC50 was greater than 0.3 µM.

What about the IC50 (second compound 0.1 µM) of the same compound?
Its IC50 is greater than 0.3 µM.

And the IC50 (second compound 0.316 µM)?
The IC50 was greater than 0.3 µM.

And the IC50 (second compound 1 µM)?
The IC50 was greater than 0.3 µM.

What about the IC50 (second compound 3.16 µM) of the same compound?
Its IC50 is greater than 0.3 µM.

And the IC50 (second compound 10 µM)?
The IC50 was greater than 0.3 µM.

And the viability, T/C (second compound 0.0316 µM, first compound 0.000949 µM)?
Its viability, T/C is 98.2%.

And the viability, T/C (second compound 0.0316 µM, first compound 0.003 µM)?
Its viability, T/C is 101%.

And the viability, T/C (second compound 0.0316 µM, first compound 0.00949 µM)?
The viability, T/C was 90.6%.

What about the viability, T/C (second compound 0.0316 µM, first compound 0.03 µM) of the same compound?
Its viability, T/C is 65.4%.

What about the viability, T/C (second compound 0.0316 µM, first compound 0.0949 µM) of the same compound?
The viability, T/C was 58.1%.

And the viability, T/C (second compound 0.0316 µM, first compound 0.3 µM)?
Its viability, T/C is 60.2%.

What about the viability, T/C (second compound 0.1 µM, first compound 0.000949 µM) of the same compound?
The viability, T/C was 93.2%.

What about the viability, T/C (second compound 0.1 µM, first compound 0.003 µM) of the same compound?
The viability, T/C was 98.4%.

And the viability, T/C (second compound 0.1 µM, first compound 0.00949 µM)?
Its viability, T/C is 84.4%.

What about the viability, T/C (second compound 0.1 µM, first compound 0.03 µM) of the same compound?
Its viability, T/C is 70.2%.

And the viability, T/C (second compound 0.1 µM, first compound 0.0949 µM)?
Its viability, T/C is 61.2%.

And the viability, T/C (second compound 0.1 µM, first compound 0.3 µM)?
Its viability, T/C is 56.9%.

And the viability, T/C (second compound 0.316 µM, first compound 0.000949 µM)?
Its viability, T/C is 96.5%.

What about the viability, T/C (second compound 0.316 µM, first compound 0.003 µM) of the same compound?
The viability, T/C was 92.9%.

And the viability, T/C (second compound 0.316 µM, first compound 0.00949 µM)?
Its viability, T/C is 90.4%.

And the viability, T/C (second compound 0.316 µM, first compound 0.03 µM)?
Its viability, T/C is 64.8%.

What about the viability, T/C (second compound 0.316 µM, first compound 0.0949 µM) of the same compound?
Its viability, T/C is 61.8%.

And the viability, T/C (second compound 0.316 µM, first compound 0.3 µM)?
Its viability, T/C is 57.9%.

And the viability, T/C (second compound 1 µM, first compound 0.000949 µM)?
The viability, T/C was 95%.

And the viability, T/C (second compound 1 µM, first compound 0.003 µM)?
Its viability, T/C is 99.6%.

What about the viability, T/C (second compound 1 µM, first compound 0.00949 µM) of the same compound?
Its viability, T/C is 74.7%.

And the viability, T/C (second compound 1 µM, first compound 0.03 µM)?
Its viability, T/C is 65.2%.

And the viability, T/C (second compound 1 µM, first compound 0.0949 µM)?
The viability, T/C was 64.3%.

What about the viability, T/C (second compound 1 µM, first compound 0.3 µM) of the same compound?
Its viability, T/C is 58.5%.

What about the viability, T/C (second compound 3.16 µM, first compound 0.000949 µM) of the same compound?
The viability, T/C was 90.8%.

What about the viability, T/C (second compound 3.16 µM, first compound 0.003 µM) of the same compound?
Its viability, T/C is 94.1%.

And the viability, T/C (second compound 3.16 µM, first compound 0.00949 µM)?
The viability, T/C was 80%.

And the viability, T/C (second compound 3.16 µM, first compound 0.03 µM)?
The viability, T/C was 65.2%.

And the viability, T/C (second compound 3.16 µM, first compound 0.0949 µM)?
The viability, T/C was 57.6%.

And the viability, T/C (second compound 3.16 µM, first compound 0.3 µM)?
The viability, T/C was 63.5%.

What about the viability, T/C (second compound 10 µM, first compound 0.000949 µM) of the same compound?
The viability, T/C was 93.9%.

What about the viability, T/C (second compound 10 µM, first compound 0.003 µM) of the same compound?
Its viability, T/C is 98.8%.

And the viability, T/C (second compound 10 µM, first compound 0.00949 µM)?
Its viability, T/C is 75.4%.

And the viability, T/C (second compound 10 µM, first compound 0.03 µM)?
The viability, T/C was 69.6%.

What about the viability, T/C (second compound 10 µM, first compound 0.0949 µM) of the same compound?
The viability, T/C was 65%.

And the viability, T/C (second compound 10 µM, first compound 0.3 µM)?
The viability, T/C was 60.4%.
